Test results from PubChem BioAssay (NCI).
“And” between values parts separate entries of the source, which are not always exact repeats. Equal values may be shown once.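 Dose response: 5 concentrations. Exposure: 48 h. Format: 96-well plates. Endpoint: linear interpolation; highest concentration if not reached. The concentration for 50% growth inhibition is given as GI50. TGI marks complete inhibition of growth.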

Assays:
Assay in all cases: DTP human tumour cell line panel, 48 h
[1] = system: A549 NSCLC
[2] = system: HCT-15 colon
[3] = system: HOP-92 NSCLC
[4] = system: MDA-MB-231 breast
[5] = system: NCI-H460 lung
[6] = system: NCI-H522 lung
[7] = system: OVCAR-3 ovarian
[8] = system: SN12C renal
[9] = system: SNB-19 CNS
[10] = system: SW-620 colon

| Structure (SMILES) | GI50 [1] | TGI [1] | GI50 [2] | TGI [2] | GI50 [3] | TGI [3] | GI50 [4] | TGI [4] | GI50 [5] | TGI [5] | GI50 [6] | TGI [6] | GI50 [7] | TGI [7] | GI50 [8] | TGI [8] | GI50 [9] [nM] | TGI [9] | GI50 [10] | TGI [10] |
| --- | --- | --- | --- | --- | --- | --- | --- | --- | --- | --- | --- | --- | --- | --- | --- | --- | --- | --- | --- | --- |
| Cc1ncc(CCCN(C)C)cc1Nc1ncc2c(n1)-c1ccc(C(F)(F)F)cc1NC(=S)C2 | 10.4 nM | 11.6 µM | 38.9 nM | 15 µM | 21.6 nM | 519 nM | < 15.3 nM | 0.302 µM | < 17.8 nM | 11.9 µM | < 10 nM | 18.1 µM | 58.2 nM | 15.2 µM | 95.2 nM | 18.4 µM | 71.3 | 68.9 µM | < 10 nM | 12.3 µM |
| COc1cccc(C#Cc2ccccc2C#CCCCCO)c1 | 4210 nM | 17.3 µM | 3620 nM | 17.7 µM | 2490 nM | 21700 nM | 3410 nM | 13.2 µM | 16100 nM | 34 µM | 13300 nM | 30 µM | 10700 nM | 28.8 µM | 11600 nM | 27 µM | 18500 | 35.5 µM | 17500 nM | 35.9 µM |
| CCc1nc(C(N)=O)c(Nc2ccc(N3CCC(N4CCN(C)CC4)CC3)c(OC)c2)nc1NC1CCOCC1 | 2350 nM and 379 nM and 2610 nM | 15.2 µM and > 10 µM and 16.1 µM | 1680 nM and 380 nM and 1410 nM | 15.7 µM and > 10 µM and 16 µM | 173 nM and 82.7 nM and 247 nM | 1620 nM and 640 nM and 1630 nM | 3380 nM and 829 nM and 3520 nM | 17.7 µM and > 10 µM and 17.2 µM | 1370 nM and 501 nM and 1270 nM | 17.4 µM and > 10 µM and 19.5 µM | 4960 nM and 763 nM and 6270 nM | 21.7 µM and > 2.52 µM and 23.9 µM | 8010 nM and 3690 nM and 9270 nM | 22.9 µM and > 10 µM | 545 nM and 247 nM and 491 nM | 20.2 µM and > 10 µM and 17.5 µM |  | 20.2 µM and > 10 µM and 22.7 µM | 1330 nM and 366 nM and 1290 nM | 13.6 µM and > 10 µM and 14.8 µM |
| CCn1c(SCc2ccc(C)cc2)nnc1-c1nn(-c2ccc(Cl)cc2Cl)c(-c2ccc(Cl)cc2)c1C | 2820 nM | 11.3 µM | 2700 nM | 11.4 µM | 530 nM | 4220 nM | 2350 nM | 8.54 µM | 1460 nM | 10.5 µM | 1350 nM | 5.2 µM | 1980 nM | 11.6 µM | 2310 nM | 10.8 µM | 2300 | 13.3 µM | 2560 nM | 12.6 µM |
| COc1cccc2c(=O)c3c(sc12)c(N1CCNCC1)nc1ccccc13 | 1810 nM | 4.26 µM | 1530 nM | 3.09 µM | 1240 nM | 2730 nM | 1700 nM | 3.32 µM | 1720 nM | 3.41 µM | 1790 nM | 3.69 µM | 1670 nM | 3.12 µM | 1540 nM | 3.06 µM | 1790 | 3.39 µM | 1490 nM | 3.09 µM |
| O=S(=O)(Nc1cc(Sc2cccc3cccnc23)c(O)c2ccccc12)c1ccccc1 | 747 nM | 18.1 µM | 464 nM | 2.5 µM | 2610 nM | 7380 nM | 470 nM | 6.01 µM | 499 nM | 13.7 µM | 2120 nM | 8.17 µM | 817 nM | 3.9 µM | 798 nM | 3.6 µM | 1980 | 21.4 µM | 1040 nM | 11.6 µM |
